The source of these data is publication PMC11915835, “Enhancing the solubility of SARS-CoV-2 inhibitors to increase future prospects for clinical development” (Journal of Virology, 2025).

Data set [1] deals with SARS-CoV-2 S BA.5. The format is cell-based. Particulars: for IC50: read-out: IC50, inhibition of S-mediated cell–cell fusion, SARS-CoV-2 BA.5; for IC90: read-out: IC90, inhibition of S-mediated cell–cell fusion, SARS-CoV-2 BA.5.
The target of data set [2] is SARS-CoV-2 tHRN peptide (44 residues) (Severe acute respiratory syndrome coronavirus 2, UniProt P0DTC2). Format: binding.
Data set [3] concerns the target SARS-CoV-2 HRN peptide (55 residues) (Severe acute respiratory syndrome coronavirus 2, UniProt P0DTC2). The format is binding. The settings on record: pH 7.4.
A short description of data set [4]: Chemical stability in PBS by UPLC. The settings on record: room temperature; for Peptide degradation after incubation in PBS: 2 weeks, UPLC 220 nm, disulfide peak after 1 day removed by TCEP; for Integrity during the solubility study: up to 168 h, UPLC, 220 nm. The format is physicochemical.
For data set [5] the following is noted: pH 7.4.

Read-outs that look alike come from different tables or passages of the source.

For the molecule “Ac-SIDQINATFVDIEYEIKKLEEVAKKLEESYIDLKEL-NH2 [SK]”, in data set [1], the IC50 came out at 6.2 ± 1.1 nM and the IC90 is 14 ± 2 nM. The “Tm of 1:1 mixture with tHRN” value in data set [2] (5-95 °C) is 72 +/- 0.3 °C. Besides, in data set [3], the “Temperature above which disruption of the helical assembly with HRN is detectable” value was > 70 °C. For the same molecule, the “Peptide degradation after incubation in PBS” value in data set [4] was “No peptide degradation was observed”.

Take “Ac-DISQINASVVNIEYEIKKLEEVAKKLEESLIDLQELGSGSGC-NH2 [QE-L]”: in data set [4], the “Integrity during the solubility study” value is recorded as “remained intact”. In addition, the “Solubility relative to HRC-L” value in data set [5] is listed as “~ two-fold”.

As for “Ac-DISQINASVVNIEYEIKKLEEVAKKLEESLIDLQEL-NH2 [QE]”, in data set [1], the IC50 was found to be 7 ± 2.1 nM and the concentration for an effect of 90% (IC90) came out at 14 ± 4 nM. Further, the “Tm of 1:1 mixture with tHRN” value in data set [2] (5-95 °C) is 65 +/- 0.5 °C. Moreover, the “Temperature above which disruption of the helical assembly with HRN is detectable” value in data set [3] was > 70 °C. Besides, the “Peptide degradation after incubation in PBS” value in data set [4] is “No peptide degradation was observed”.

“Ac-PDVDLGDISQINASVVNIEYEIKKLEEVAKKLEESLIDLQEL-NH2 [QE-EXT]”: the half-maximal inhibitory concentration (IC50) in data set [1] turned out to be 5.6 ± 0.72 nM.

As to “Ac-SIDQINATFVDIEYEIKKLEEVAKKLEESYIDLKELGSGSGC-NH2 [SK-L]”, the “Integrity during the solubility study” value in data set [4] is “remained intact”. Further, the “Solubility relative to HRC-L” value in data set [5] is “~ two-fold”.

For `CC[C@H](C)[C@H](NC(=O)[C@H](C)NC(=O)[C@H](CCC(=O)O)NC(=O)[C@H](CCC(=O)O)NC(=O)[C@H](CC(C)C)NC(=O)[C@H](CCCCN)NC(=O)[C@H](CCCCN)NC(=O)[C@H](CCSC)NC(=O)[C@H](CCC(=O)O)NC(=O)[C@H](Cc1ccc(O)cc1)NC(=O)[C@H](CCC(=O)O)NC(=O)[C@H](CC(C)C)NC(=O)[C@H](CC(=O)O)NC(=O)[C@H](CC(C)C)NC(=O)[C@H](Cc1ccccc1)NC(=O)[C@@H](NC(=O)[C@@H](NC(=O)[C@H](CC(N)=O)NC(=O)[C@@H](NC(=O)[C@H](CCC(N)=O)NC(=O)[C@H](CC(=O)O)NC(=O)[C@H](CC(C)C)NC(=O)[C@H](CO)NC(C)=O)[C@@H](C)CC)C(C)C)[C@@H](C)O)C(=O)N[C@@H](CCCCN)C(=O)N[C@@H](CCCCN)C(=O)N[C@@H](CC(C)C)C(=O)N[C@@H](CCC(=O)O)C(=O)N[C@@H](CCC(=O)O)C(=O)N[C@@H](CO)C(=O)N[C@@H](Cc1ccc(O)cc1)C(=O)N[C@H](C(=O)N[C@@H](CC(=O)O)C(=O)N[C@@H](CC(C)C)C(=O)N[C@@H](CCCCN)C(=O)N[C@@H](CCC(=O)O)C(=O)N[C@@H](CC(C)C)C(N)=O)[C@@H](C)CC` [EK1, reference compound], the “Tm of 1:1 mixture with tHRN” value in data set [2] (pH 7.4) turned out to be 38 ± 0.3 °C.
